Measured values published in patent US20030129684A1, “Method for detecting fungicides” (priority 2000, published 2003).

Legend:
[1] = system: Rhodotorula rubra; details: fluorescence extinction at 254 nm; result in words
Method: 200 ml of deionised water, 10 g of Sabouraud 2% glucose broth and 0.11 g of Gelrite® are boiled until sterile. The test organism is then added in the form of a lyophilisate or living culture and pre-incubated for 3 hours at 35° C.
The developed TLC plate is dipped briefly into the fungal suspension, and excess suspension is removed from the base of the plate. The TLC plate is subsequently incubated for 20 hours at room temperature in a can lined with moist paper.
The evaluation is carried out by fluorescence extinction at 254 nm.

[2] = system: Rhodotorula rubra; assay: Bioautographic detection of various fungicides on TLC plate, staining with optical brightener, evaluation at 366 nm; type: cell-based; design: key to Zone of inhibition 2 ppb / Zone of inhibition 500 ppt / Zone of inhibition 100 ppt: −: no zone of inhibition; +: small zone of inhibition; ++: clearly visible zone of inhibition; details: for Zone of inhibition 2 ppb / Zone of inhibition 100 ppt / Zone of inhibition 500 ppt: optical brightener, 366 nm, 20 hours incubation
Method: The evaluation is carried out by staining with optical brightener (0.04% of Blankophor® BA 267% from Bayer AG, Germany, in 0.1 mol/l NaOH solution). To this end, the TLC plate is dried, wetted with the stain solution and subsequently stored for 5 minutes at room temperature. The evaluation is carried out at 366 nm. The zones of inhibition are evident as dark spots against a fluorescent background.

| SMILES | zone of inhibition with Rf about 1.0 [1] | Zone of inhibition 2 ppb [2] | Zone of inhibition 100 ppt [2] | Zone of inhibition 500 ppt [2] | Detection limit ([2]; also printed as 2 μg/kg) | zone of inhibition on the starting line (Rf=0) [1] | Detection limit ([2]; also printed as 500 ng/kg) |
| --- | --- | --- | --- | --- | --- | --- | --- |
| CCC[CH2][Sn]([Cl])([CH2]CCC)[CH2]CCC [F1, Tributyltin Chloride] | evident |  |  |  |  |  |  |
| CC(Cc1ccc(C(C)(C)C)cc1)CN1C[C@@H](C)O[C@@H](C)C1 (some centres unmarked) [A1, fenpropimorph] |  | ++ | − | − | 2 ppb (2 μg/kg) |  |  |
| CCC[CH2][Sn]([Cl])([CH2]CCC)[CH2]CCC [F2, Tributyltin Chloride] |  |  |  |  |  | evident |  |
| C[Si](Cn1cncn1)(c1ccc(F)cc1)c1ccc(F)cc1 [A2, flusilazole] |  | ++ | − | + |  |  | 500 ppt (500 ng/kg) |
| CCCC1COC(Cn2cncn2)(c2ccc(Cl)cc2Cl)O1 (centres unmarked) [A3, propiconazole] |  | ++ | − | + |  |  | 500 ppt (500 ng/kg) |
